Results taken from patent publication US10344019B2 (priority 2010, dated 2019).
Where two headings read alike, the source gives them in different places.

Tests used:
Type in all cases: cell-based
[1] = test system: HCV 1a RLuc cells (dicistronic genotype 1a H77 replicon, RLuc reporter); test: microbe, parasite or virus in culture; conditions: Hepatitis C virus, read-out: 1a
Procedure, shortened: (§1)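 Renilla luciferase HCV replicon cells: dicistronic 1b Con1, 1a H77 or 2a JFH-1 replicons, or a JFH-1 chimera carrying J6 NS5A (M31 present). Compound in DMSO serial dilutions, 72 h incubation, then lysis and luciferase read. EC50 by non-linear regression.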

[2] = test system: HCV 3a RLuc cells (NS5A chimeric genotype 1b Con1 replicon with consensus genotype 3a NS5A gene); test: microbe, parasite or virus in culture; conditions: Hepatitis C virus
Procedure, shortened: (§2)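 Replicon cells stably carrying the listed RLuc-encoding dicistronic replicons were seeded and treated with DMSO serial dilutions of compound (10 mM stocks) diluted into culture medium. After 72 h, cells were lysed and Renilla luciferase activity measured. EC50 was derived by non-linear regression.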

[3] = test system: HCV 1b RLuc cells (dicistronic genotype 1b Con1 replicon, RLuc reporter); test: microbe, parasite or virus in culture; conditions: Hepatitis C virus, read-out: 1b (nM)
Procedure, shortened: as §1

[4] = test system: HCV 2b Rluc cells (NS5A chimeric genotype 2a JFH-1 replicon with genotype 2b MD2b-1 NS5A gene, M31 present); test: microbe, parasite or virus in culture; conditions: Hepatitis C virus, read-out: 2b
Procedure, shortened: as §2

[5] = test system: HCV 2a JFH-1 Rluc cells (dicistronic genotype 2a JFH-1 replicon, RLuc reporter); test: microbe, parasite or virus in culture; conditions: Hepatitis C virus, read-out: 2a JFH
Procedure, shortened: as §1

[6] = test system: HCV 4a Rluc cells (NS5A chimeric genotype 1b Con1 replicon with genotype 4a NS5A gene); test: microbe, parasite or virus in culture; conditions: Hepatitis C virus, read-out: 4a
Procedure, shortened: as §2

[7] = test system: HCV 2a Rluc cells (NS5A chimeric genotype 2a JFH-1 replicon with genotype 2a J6 strain NS5A gene, M31 present); test: HCV replicon reporter assay, genotype 2a J6 (M31 present); conditions: Hepatitis C virus, read-out: 2a J6
Procedure, shortened: as §1

[8] = test system: Q30R in genotype 1a NS5A, 1a Rluc replicon transfected into Huh-7 cured-51 cells; test: HCV replicon assay, resistance mutant 1a Q30R; conditions: Hepatitis C virus, Huh-7, read-out: 1a Q30R
Procedure, shortened: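 Q30R introduced into genotype 1a H77 RLuc replicon by site-directed mutagenesis; replicon RNA transfected into Huh-7 cured-51 cells.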

[9] = read-out: 3a, genotype 3a NS5A chimeric replicon
[10] = genotype 2a JFH-1 RLuc replicon
[11] = 72 h, Table 1, genotype 1a H77 replicon, 72 hours
[12] = read-out: 3a, Table 1, genotype 3a NS5A chimeric replicon
[13] = 72 h, Table 1, genotype 2a JFH-1 replicon, 72 hours
[14] = read-out: 3a, genotype 3a replicon

| SMILES | EC50 ([1]; genotype 1a H77 RLuc replicon) [pM] | EC50 [2, 9] [pM] | EC50 [3] [nM] | EC50 [4] [pM] | EC50 [5, 10] [pM] | EC50 [6] [pM] | EC50 [7] [pM] | EC50 [8] [pM] | EC50 [1, 11] [pM] | EC50 [2, 12] [pM] | EC50 ([3]; 72 h) [nM] | EC50 [5, 13] [pM] | EC50 ([1]; genotype 1a replicon) [pM] | EC50 [2, 14] [pM] | EC50 ([5]; genotype 2a JFH-1 replicon) [pM] |
| --- | --- | --- | --- | --- | --- | --- | --- | --- | --- | --- | --- | --- | --- | --- | --- |
| COC[C@H]1C[C@@H](c2nc3ccc4cc(-c5ccc6c(ccc7nc([C@@H]8C[C@H]9C[C@H]9N8C(=O)[C@@H](NC(=O)OC)C(C)C)[nH]c76)c5)ccc4c3[nH]2)N(C(=O)[C@H](NC(=O)C2CC2)c2ccccc2)C1 [Example 502] | 1 to 999 | 1 to 990 | 0.016 | 1 to 999 | 1 to 999 | 1 to 990 | 1 to 999 | 1 to 999 | – | – | – | – | – | – | – |
| COC(=O)N[C@@H](C(=O)N1CCC[C@H]1c1ncc(-c2cc3c4c(c2)OCc2cc(-c5cnc([C@@H]6CCCN6C(=O)[C@H](NC(=O)OC)c6ccccc6)[nH]5)cc(c2-4)OC3)[nH]1)c1ccccc1 [Example 25d] | – | – | – | 1 to 999 | – | 1 to 990 | 1 to 999 | 1 to 999 | 1 to 999 | 1 to 990 | 0.048 | 1 to 999 | – | – | – |
| COC[C@H]1CC(c2nc3ccc4cc(-c5ccc(-c6cnc([C@@H]7CCCN7C(=O)[C@H](NC(=O)C7CC7)c7ccccc7)[nH]6)cc5)ccc4c3[nH]2)N(C(=O)[C@@H](NC(=O)OC)C(C)C)C1 (stereo in doubt) [Example 425] | – | – | 0.034 | 1 to 999 | – | 1 to 990 | 1 to 999 | 1 to 999 | – | – | – | – | 1 to 999 | 1 to 990 | 1 to 999 |
| COC(=O)N[C@H](C(=O)N1[C@@H]2C[C@@H]2C[C@H]1c1nc2ccc3cc4c(cc3c2[nH]1)OCc1cc(-c2cnc([C@@H]3CCCN3C(=O)[C@H](NC(=O)OC)c3ccccc3)[nH]2)ccc1-4)C(C)C [Example 536] | 1 to 999 | 1 to 990 | 0.013 | 1 to 999 | 1 to 999 | 1 to 990 | 1 to 999 | 1 to 999 | – | – | – | – | – | – | – |
| COC(=O)N[C@H](C(=O)N1CCC[C@H]1c1nc2ccc3cc4c(cc3c2[nH]1)OCc1cc(-c2cnc([C@@H]3CCCN3C(=O)[C@H](NC(=O)C3CC3)c3ccccc3)[nH]2)ccc1-4)C(C)C [Example 498] | 1 to 999 | 1 to 990 | 0.016 | 1 to 999 | 1 to 999 | 1 to 990 | 1 to 999 | 1 to 999 | – | – | – | – | – | – | – |
| COC(=O)N[C@H](C(=O)N1C[C@@H](C)C[C@H]1c1nc2ccc3cc4c(cc3c2[nH]1)OCc1cc(-c2cnc([C@@H]3CCCN3C(=O)[C@H](NC(=O)OC)c3ccccc3)[nH]2)ccc1-4)C(C)C [Example 565] | 1 to 999 | 1 to 990 | 0.017 | 1 to 999 | 1 to 999 | 1 to 990 | 1 to 999 | 1 to 999 | – | – | – | – | – | – | – |
| COC(=O)N[C@H](C(=O)N1C[C@@H](C)C[C@H]1c1ncc(-c2ccc3c(c2)COc2cc4c(ccc5nc([C@@H]6C[C@H](C)CN6C(=O)[C@H](NC(=O)OC)c6ccccc6)[nH]c54)cc2-3)[nH]1)C(C)C [Example 582] | 1 to 999 | 1 to 990 | 0.01 | 1 to 999 | 1 to 999 | 1 to 990 | 1 to 999 | 1 to 999 | – | – | – | – | – | – | – |
| COC[C@H]1C[C@@H](c2nc3ccc4cc(-c5ccc6c(ccc7nc([C@@H]8C[C@H](C)CN8C(=O)[C@@H](NC(=O)OC)C(C)C)[nH]c76)c5)ccc4c3[nH]2)N(C(=O)[C@H](N)c2ccccc2)C1 [Example 545] | 1 to 999 | 1 to 990 | 0.075 | 1 to 999 | 1 to 999 | 1 to 990 | 1 to 999 | 1 to 999 | – | – | – | – | – | – | – |
| COC[C@H]1C[C@@H](c2nc3ccc4cc5c(cc4c3[nH]2)OCc2cc(-c3cnc([C@@H]4CC[C@H](C)N4C(=O)[C@@H](NC(=O)OC)C(C)C)[nH]3)ccc2-5)N(C(=O)[C@@H](NC(=O)OC)C(C)C)C1 [Example 561] | 1 to 999 | 1 to 990 | 0.01 | 1 to 999 | 1 to 999 | 1 to 990 | 1 to 999 | 1 to 999 | – | – | – | – | – | – | – |
| COC[C@H]1C[C@@H](c2nc3ccc4cc(-c5ccc6c(ccc7nc([C@@H]8C[C@H](COC)CN8C(=O)[C@H](NC(=O)OC)c8ccccc8)[nH]c76)c5)ccc4c3[nH]2)N(C(=O)[C@@H](NC(=O)OC)C(C)C)C1 [Example 437] | – | – | 0.048 | 1 to 999 | – | 1 to 990 | 1 to 999 | 1 to 999 | – | – | – | – | 1 to 999 | 1 to 990 | 1 to 999 |
| COC(=O)N[C@H](C(=O)N1C[C@@H](C)C[C@H]1c1nc2ccc3cc4c(cc3c2[nH]1)OCc1cc(-c2cnc([C@@H]3CC[C@H](C)N3C(=O)[C@@H](NC(=O)OC)C(C)C)[nH]2)ccc1-4)C(C)C [Example 566] | 1 to 999 | 1 to 990 | 0.009 | 1 to 999 | 1 to 999 | 1 to 990 | 1 to 999 | 1 to 999 | – | – | – | – | – | – | – |
| COC[C@H]1C[C@@H](c2nc3ccc4cc5c(cc4c3[nH]2)OCc2cc(-c3cnc([C@@H]4CCCN4C(=O)[C@@H](NC(=O)OC)C(C)C)[nH]3)ccc2-5)N(C(=O)[C@H](N)c2ccccc2)C1 [Example 571] | 1 to 999 | 1 to 990 | 0.114 | 1 to 999 | 1 to 999 | 1 to 990 | 1 to 999 | 1 to 999 | – | – | – | – | – | – | – |
| COC[C@H]1C[C@@H](c2nc3ccc4cc(-c5ccc6c(ccc7nc([C@@H]8CCCN8C(=O)[C@H](NC(=O)OC)c8ccccc8)[nH]c76)c5)ccc4c3[nH]2)N(C(=O)[C@@H](NC(=O)OC)C(C)C)C1 [Example 454] | – | – | 0.028 | 1 to 999 | – | 1 to 990 | 1 to 999 | 1 to 999 | – | – | – | – | 1 to 999 | 1 to 990 | 1 to 999 |
| COC[C@H]1C[C@@H](c2ncc(-c3ccc(-c4ccc(-c5cnc([C@@H]6CCCN6C(=O)[C@@H](NC(=O)OC)C(C)C)[nH]5)cc4)cc3)[nH]2)N(C(=O)[C@H](NC(=O)OC)c2ccccc2)C1 [Example 500] | 1 to 999 | 1 to 990 | 0.028 | 1 to 999 | 1 to 999 | 1 to 990 | 1000 to 44000 | 1 to 999 | – | – | – | – | – | – | – |
| COC(=O)N[C@H](C(=O)N1C[C@@H](C)C[C@H]1c1ncc(-c2ccc3c(c2)COc2cc4c(ccc5nc([C@@H]6C[C@H](C)CN6C(=O)[C@@H](NC(=O)OC)C(C)C)[nH]c54)cc2-3)[nH]1)C(C)C [Example 569] | 1 to 999 | 1 to 990 | 0.024 | 1 to 999 | 1 to 999 | 1 to 990 | 1 to 999 | 1 to 999 | – | – | – | – | – | – | – |
| COC(=O)N[C@H](C(=O)N1CCC[C@H]1c1ncc(-c2cc3c4c(c2)OCc2cc(-c5cnc([C@@H]6CCCN6C(=O)[C@H](NC(=O)OC)c6ccccc6)[nH]5)cc(c2-4)OC3)[nH]1)C(C)C [Example 25c] | – | – | – | 1 to 999 | – | 1 to 990 | 1000 to 44000 | 1 to 999 | 1 to 999 | 1 to 990 | 0.031 | 1 to 999 | – | – | – |
| COC[C@H]1C[C@@H](c2ncc(-c3cc4c5c(c3)OCc3cc(-c6cnc([C@@H]7CC[C@H](C)N7C(=O)[C@@H](NC(=O)OC)C(C)C)[nH]6)cc(c3-5)OC4)[nH]2)N(C(=O)[C@H](NC(=O)OC)c2ccccc2)C1 [Example 596] | 1 to 999 | 1 to 990 | 0.013 | 1 to 999 | 1 to 999 | 1 to 990 | 1 to 999 | 1 to 999 | – | – | – | – | – | – | – |
